Data reported in US9567322B2, “Substituted tetrahydropyrans and method of use” (AbbVie S.á.r.l., priority 2014, dated 2017).

Tests used:
[1] = molecular target: T1, F508delCFTR (Homo sapiens, UniProt P13569, DEL508-508); assay: Cell Surface Expression-Horse Radish Peroxidase (CSE-HRP) assay; assay type: cell-based; conditions: CFBE41o-F508delCFTR-HRP cells; for EC50: cell surface expression, luminescence readout, 18-24 hours at 33° C., highest concentration tested 20 μM, 8-point curve; for Maximum % activity: maximum at any tested concentration, normalized to on-plate positive control (3 μM) and DMSO
T1 construct: expressed in transfected cells; host or cells: CFBE41o- (CFBE41o-F508delCFTR-HRP), doxycycline-inducible
T1 sequence (P13569 with tags, fused parts or gaps DEL508-508): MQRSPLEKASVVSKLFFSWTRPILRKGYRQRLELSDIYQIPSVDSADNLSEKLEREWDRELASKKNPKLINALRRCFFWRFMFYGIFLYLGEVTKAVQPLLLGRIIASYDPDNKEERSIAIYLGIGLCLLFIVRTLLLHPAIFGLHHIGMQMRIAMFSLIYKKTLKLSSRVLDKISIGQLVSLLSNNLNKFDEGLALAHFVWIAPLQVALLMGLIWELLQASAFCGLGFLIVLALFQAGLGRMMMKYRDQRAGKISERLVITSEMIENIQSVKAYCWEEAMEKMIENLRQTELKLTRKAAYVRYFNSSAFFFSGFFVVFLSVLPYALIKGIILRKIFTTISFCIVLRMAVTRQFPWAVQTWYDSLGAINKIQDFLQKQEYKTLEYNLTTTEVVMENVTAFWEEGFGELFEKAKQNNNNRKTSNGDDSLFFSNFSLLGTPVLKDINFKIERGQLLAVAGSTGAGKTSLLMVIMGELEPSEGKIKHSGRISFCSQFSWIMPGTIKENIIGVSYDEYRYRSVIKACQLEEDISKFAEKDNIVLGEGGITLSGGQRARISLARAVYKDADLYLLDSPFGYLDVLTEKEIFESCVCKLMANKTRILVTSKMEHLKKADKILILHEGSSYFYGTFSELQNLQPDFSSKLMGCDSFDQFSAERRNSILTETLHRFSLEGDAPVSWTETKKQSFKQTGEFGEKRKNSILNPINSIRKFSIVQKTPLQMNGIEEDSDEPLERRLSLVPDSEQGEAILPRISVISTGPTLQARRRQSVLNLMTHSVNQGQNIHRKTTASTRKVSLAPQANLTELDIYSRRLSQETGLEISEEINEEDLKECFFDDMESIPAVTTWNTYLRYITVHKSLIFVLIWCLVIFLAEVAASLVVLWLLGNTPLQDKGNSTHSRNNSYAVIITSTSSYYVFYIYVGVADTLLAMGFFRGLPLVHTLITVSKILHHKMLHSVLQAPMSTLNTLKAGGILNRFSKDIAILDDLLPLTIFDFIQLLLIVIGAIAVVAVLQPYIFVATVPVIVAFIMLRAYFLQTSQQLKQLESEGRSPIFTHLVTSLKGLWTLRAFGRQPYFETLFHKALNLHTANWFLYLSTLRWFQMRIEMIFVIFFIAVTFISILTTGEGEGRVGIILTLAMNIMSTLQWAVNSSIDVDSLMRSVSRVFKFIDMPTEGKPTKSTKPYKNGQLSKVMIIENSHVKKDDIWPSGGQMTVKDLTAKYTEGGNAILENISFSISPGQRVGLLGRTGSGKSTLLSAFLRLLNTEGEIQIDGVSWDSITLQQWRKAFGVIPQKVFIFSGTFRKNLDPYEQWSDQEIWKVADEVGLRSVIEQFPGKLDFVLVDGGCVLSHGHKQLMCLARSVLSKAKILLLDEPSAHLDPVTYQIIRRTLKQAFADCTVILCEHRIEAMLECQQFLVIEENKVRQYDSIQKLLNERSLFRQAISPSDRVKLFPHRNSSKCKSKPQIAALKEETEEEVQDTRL
Summary of the method: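 CFBE41o- cells expressing F508delCFTR with HRP in the fourth extracellular loop were doxycycline-induced (0.5 μg/mL) for 72 h at 37 °C, then treated 18-24 h at 33 °C with an 8-point 3-fold series from 20 μM. Surface HRP luminescence (luminol) was normalized to DMSO and positive control; EC50 came from variable-slope sigmoidal fits of triplicate plates.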

[2] = molecular target: T2, F508del/F508del CFTR (Homo sapiens, UniProt P13569, DEL508-508); assay: Transepithelial Clamp Circuit (TECC-24) conductance assay on primary human bronchial epithelial cells; assay type: cell-based; conditions: primary hBE cells from F508del/F508delCFTR patients; for EC50: equivalent short circuit current (Ieq), correctors 18-24 hours at 37° C., with control potentiator, 6 test concentrations; for Maximum % activity: relative to positive control (3 μM) coupled with control potentiator = 100%
T2 construct: cells isolated from CF patients with the homozygous mutation; endogenous in cells; host or cells: primary human bronchial epithelial (hBE) cells from F508del/F508del CF patients
T2 sequence (P13569 with tags, fused parts or gaps DEL508-508): as above
Source text: Transepithelial Clamp Circuit on Human Bronchial Epithelial Cells Conductance Assay:
A cell based assay using the primary human bronchial epithelial cells (hBE) was used as a secondary assay to test novel F508delCFTR correctors for their activity on primary hBE cells with F508del/F508del CFTR mutation. The assay used a TECC-24 (Transepithelial Clamp Circuit for 24 wells) instrument that measures the functionality of the mutated channel by measuring the equivalent short circuit current (Ieq) generated by the polarized epithelial cells. The instrument works by measuring the transepithelial potential difference (Vt) and transepithelial resistance (Rt) in an open circuit format, and the Ieq is calculated by using Ohms law (Ieq=Vt/Rt). The assay was run in a 24-well format and all 24-wells were measured at the same time point giving a higher throughput for this assay.
Primary human bronchial epithelial (hBE) cells from F508del/F508delCFTR patients were expanded from 1×10^6 to 250×10^6 cells (Neuberger T, Burton B, Clark H and VanGoor F; Cystic Fibrosis, Methods in Mole Biol 741; eds. Amaral M D and Kunzelmann K, 2011). For this purpose, cells isolated from CF patients with the homozygous mutation were seeded onto 24 well Corning (Cat #3378) filter plates that were coated with 3T3 conditioned media and grown at an air-liquid interface for 35 days using an Ultroser® G supplemented differentiation media. Apical surface mucus was removed 72 hours before the experiment using 3 mM dithiothreitol (DTT) in phosphate buffered saline (PBS). The apical surface was washed again 24 hours before the experiment using PBS. The cells were incubated with the desired dose response of the corrector compounds 18-24 hours at 37° C., 5% CO2. The corrector compounds are only added on the basolateral side of the epithelial cells.
On the day of measuring the corrector activity on the TECC, the cells were switched into a bicarbonate and serum free F-12 Coon's medium and allowed to equilibrate for 90 minutes in a CO2 free incubator. At the time of measurement, the apical and basolateral sides of the filter were bathed with the F-12 Coon's modification media (with 20 mM 4-(2-hydroxyethyl)-1-piperazineethanesulfonic acid (HEPES), pH 7.4 (using 1 M tris(hydroxymethyl)aminomethane (Tris)), and the measurements were made at 36.5° C. Transepithelial voltage (Vt) and transepithelial resistance (Rt) were measured using a 24 channel transepithelial current clamp (TECC-24). Current responses to the sequential addition of benzamil (apical 6 M addition; for inhibiting epithelial ENaC channel), forskolin (apical and basolateral 10 M addition; for activating the CFTR channel), control potentiator (N-(3-carbamoyl-5,5,7,7-tetramethyl-4,7-dihydro-5H-thieno[2,3-c]pyran-2-yl)-1H-pyrazole-5-carboxamide; apical and basolateral 1 M addition; for potentiating the CFTR channel) and bumetanide (basolateral 20 μM addition; for inhibiting the Na:2Cl:K co-transporter, an indirect measure of inhibiting the Cl-secretion driven by CFTR channel) were measured.
All plates contained negative controls (dimethyl sulfoxide, DMSO) which coupled with the control potentiator (N-(3-carbamoyl-5,5,7,7-tetramethyl-4,7-dihydro-5H-thieno[2,3-c]pyran-2-yl)-1H-pyrazole-5-carboxamide) sets the null response and positive controls (3 μM of 3-[(2R,4R)-4-({[1-(2,2-difluoro-1,3-benzodioxol-5-yl)cyclopropyl]carbonyl}amino)-7-methoxy-3,4-dihydro-2H-chromen-2-yl]benzoic acid) coupled with the control potentiator sets the 100% response to measure the correction of the mutated CFTR channel. The maximum percent activity is reported relative to the positive control value.
The % activity measured at each of the 6 test concentrations of the test compound was normalized to the on-plate positive control using the following formula: % activity=[(test compound response−DMSO response)/(positive control response−DMSO response)]*100 […]

EC50 [1] [nM]	Maximum % activity [1] [%]	EC50 [2] [nM]	Maximum % activity [2] [%]	Maximum % activity ([1]; 3 µM) [%]	SMILES
500	109	340	76	–	O=C(O)c1cccc([C@H]2C[C@@H](NC(=O)C3(c4ccc5c(c4)OC(F)(F)O5)CC3)C[C@@H](c3ccccc3)O2)c1 (racemic) [Example 24, rac-3-[(2R,4S,6S)-4-({[1-(2,2-difluoro-1,3-benzodioxol-5-yl)cyclopropyl]carbonyl}amino)-6-phenyltetrahydro-2H-pyran-2-yl]benzoic acid]
410	90	330	91	–	Cc1cc(C(=O)O)cc([C@H]2C[C@@H](NC(=O)C3(c4ccc5c(c4)OC(F)(F)O5)CC3)C[C@@H](c3ccccc3)O2)c1 (racemic) [Example 73, rac-3-[(2R,4S,6S)-4-({[1-(2,2-difluoro-1,3-benzodioxol-5-yl)cyclopropyl]carbonyl}amino)-6-phenyltetrahydro-2H-pyran-2-yl]-5-methylbenzoic acid]
300	81	260	73	–	O=C(O)c1ccc([C@H]2C[C@@H](NC(=O)C3(c4ccc5c(c4)OC(F)(F)O5)CC3)C[C@@H](c3ccccc3)O2)cc1 (single isomer, unassigned) [Example 53]
370	–	200	–	–	Cc1cc(C(=O)O)ccc1[C@H]1C[C@H](NC(=O)C2(c3ccc4c(c3)OC(F)(F)O4)CC2)C[C@@H](c2ccccc2)O1 (single isomer, unassigned) [Example 65]
2230	100	1030	87	–	O=C(O)c1cccc([C@H]2C[C@@H](NC(=O)C3(c4ccc5c(c4)OC(F)(F)O5)CC3)CCO2)c1 [Example 19, 3-[(2R,4S)-4-({[1-(2,2-difluoro-1,3-benzodioxol-5-yl)cyclopropyl]carbonyl}amino)tetrahydro-2H-pyran-2-yl]benzoic acid]
≥ 20000	16	–	–	–	O=C(O)c1cccc([C@@H]2C[C@H](NC(=O)C3(c4ccc5c(c4)OC(F)(F)O5)CC3)C[C@H](c3ccccc3)O2)c1 [Example 26, 3-[(2S,4R,6R)-4-({[1-(2,2-difluoro-1,3-benzodioxol-5-yl)cyclopropyl]carbonyl}amino)-6-phenyltetrahydro-2H-pyran-2-yl]benzoic acid]
3310	73	–	–	–	COC(=O)c1ccc([C@@H]2C[C@H](NC(=O)C3(c4ccc5c(c4)OC(F)(F)O5)CC3)CCO2)cc1 [Example 28, methyl 4-[(2S,4R)-4-({[1-(2,2-difluoro-1,3-benzodioxol-5-yl)cyclopropyl]carbonyl}amino)tetrahydro-2H-pyran-2-yl]benzoate]
760	103	–	–	–	COC(=O)c1ccc([C@@H]2C[C@H](NC(=O)C3(c4ccc5c(c4)OC(F)(F)O5)CC3)C[C@H](c3ccc(C(=O)OC)cc3)O2)cc1 [Example 51, dimethyl rac-4,4′-[(2R,4s,6S)-4-({[1-(2,2-difluoro-1,3-benzodioxol-5-yl)cyclopropyl]carbonyl}amino)tetrahydro-2H-pyran-2,6-diyl]dibenzoate]

The next lines start with the molecule.

SMILES	EC50 [1] [nM]	Maximum % activity [1] [%]	EC50 [2] [nM]	Maximum % activity [2] [%]	Maximum % activity ([1]; 3 µM) [%]
O=C(O)c1ccc([C@H]2C[C@@H](NC(=O)C3(c4ccc5c(c4)OC(F)(F)O5)CC3)CCO2)cc1 (racemic) [Example 14, rac-4-[(2R,4S)-4-({[1-(2,2-difluoro-1,3-benzodioxol-5-yl)cyclopropyl]carbonyl}amino)tetrahydro-2H-pyran-2-yl]benzoic acid]	2860	113	1340	73	–
O=C(O)c1ccc([C@H]2C[C@@H](NC(=O)C3(c4ccc5c(c4)OC(F)(F)O5)CC3)C[C@@H](c3ccccc3)O2)c(F)c1 (racemic) [Example 60, rac-4-[(2R,4S,6S)-4-({[1-(2,2-difluoro-1,3-benzodioxol-5-yl)cyclopropyl]carbonyl}amino)-6-phenyltetrahydro-2H-pyran-2-yl]-3-fluorobenzoic acid]	270	97	140	83	–
Cc1cc(C(=O)O)ccc1[C@H]1C[C@H](NC(=O)C2(c3ccc4c(c3)OC(F)(F)O4)CC2)C[C@@H](c2ccccc2)O1 (racemic) [Example 65, rac-4-[(2R,4R,6S)-4-({[1-(2,2-difluoro-1,3-benzodioxol-5-yl)cyclopropyl]carbonyl}amino)-6-phenyltetrahydro-2H-pyran-2-yl]-3-methylbenzoic acid]	–	–	–	84	100
O=C(N[C@@H]1CCO[C@@H](c2ccc(Br)cc2)C1)C1(c2ccc3c(c2)OC(F)(F)O3)CC1 [Example 20, N-[(2R,4R)-2-(4-bromophenyl)tetrahydro-2H-pyran-4-yl]-1-(2,2-difluoro-1,3-benzodioxol-5-yl)cyclopropanecarboxamide]	7300	45	–	–	–
O=C(N[C@H]1CCO[C@H](c2ccc(Br)cc2)C1)C1(c2ccc3c(c2)OC(F)(F)O3)CC1 [Example 21, N-[(2S,4S)-2-(4-bromophenyl)tetrahydro-2H-pyran-4-yl]-1-(2,2-difluoro-1,3-benzodioxol-5-yl)cyclopropanecarboxamide]	7720	59	–	–	–
COC(=O)c1ccc([C@H]2C[C@@H](NC(=O)C3(c4ccc5c(c4)OC(F)(F)O5)CC3)CCO2)cc1 [Example 29, methyl 4-[(2R,4S)-4-({[1-(2,2-difluoro-1,3-benzodioxol-5-yl)cyclopropyl]carbonyl}amino)tetrahydro-2H-pyran-2-yl]benzoate]	1050	107	–	–	–
O=C(O)c1ccc([C@@H]2C[C@H](NC(=O)C3(c4ccc5c(c4)OC(F)(F)O5)CC3)CCO2)cc1 [Example 30, 4-[(2S,4R)-4-({[1-(2,2-difluoro-1,3-benzodioxol-5-yl)cyclopropyl]carbonyl}amino)tetrahydro-2H-pyran-2-yl]benzoic acid]	9570	26	–	–	–
O=C(O)c1ccc(C2CC(NC(=O)C3(c4ccc5c(c4)OC(F)(F)O5)CC3)CC(C3CC3)O2)cc1 (stereo not shown) [Example 44, 4-[6-cyclopropyl-4-({[1-(2,2-difluoro-1,3-benzodioxol-5-yl)cyclopropyl]carbonyl}amino)tetrahydro-2H-pyran-2-yl]benzoic acid]	2580	88	–	–	–
COC(=O)c1ccc([C@@H]2C[C@@H](NC(=O)C3(c4ccc5c(c4)OC(F)(F)O5)CC3)C[C@H](c3ccc(C(=O)OC)cc3)O2)cc1 [Example 52, dimethyl rac-4,4′-[(2R,4r,6S)-4-({[1-(2,2-difluoro-1,3-benzodioxol-5-yl)cyclopropyl]carbonyl}amino)tetrahydro-2H-pyran-2,6-diyl]dibenzoate]	1800	70	–	–	–
